Laboratory results as given in patent publication US10111890B2, “9-aminomethyl minocycline compounds and uses thereof” (Paratek Pharmaceuticals, Inc., priority 2016, dated 2018).

What was measured:
[1] = Phase 1 multiple oral dose (300, 450, 600 mg once daily x 5 days) crossover study: plasma pharmacokinetics; details: for Day 1 PK Summary, Geom. Mean / Day 1 PK Summary, Mean / Day 5 PK Summary, Geom. Mean / Day 5 PK Summary, Mean: preliminary results; for half-life / Tmax / AUC(0-t) / Cmax: human; for half-life: in vivo; for Tmax / AUC(0-t) / Cmax: plasma; for Cmax: Mean Cmax; for exposure (dose-normalized AUC0-24) as % of that predicted if perfectly dose-proportional: increase in dose from 300 mg to 600 mg
Description: Thus the study was designed as a Phase 1, randomized, double-blind, 3-period, crossover study in healthy adult subjects. The study consisted of a screening period (Day −21 through Day −2), 3 baseline periods (Day −1 of each period), 3 treatment periods (Day 1 through Day 6 of each period), and a study completion visit (within 6 to 10 days after the last dose of study drug in Period 3). There was a washout of at least 5 days between the last dose in one period and the first dose in the next period. Subjects were confined to the study site from Day −1 of Period 1 until discharge on Day 6 of Period 3, after the 24-hour blood sampling, urine sampling, and safety assessments were completed. Subjects returned to the study center 6 to 10 days after the last dose of study drug in Period 3 for the study completion visit.
All doses of study drug were administered in the morning with no food or drink except for water at least 6 hours prior to dosing. Subjects then had no food or drink except water for at least 2 hours after dosing and no dairy products, antacids, or multivitamins for 4 hours after dosing.
The 24-hour blood sample for Day 1 was collected prior to dosing on Day 2 for each period.
Point estimates and 90% CIs for differences on the log scale were exponentiated to obtain estimates for the ratios of geometric means and respective 90% CIs on the original scale. No adjustment was made for multiplicity.
The estimates of slope b were reported along with the corresponding 2-sided 90% CIs.

[2] = Phase 1 multiple oral dose study: safety and tolerability (TEAEs, serum chemistry)
[3] = 600 mg (n = 24), listed as omadacycline
[4] = 300, 450, 600 mg once daily x 5 days

CN(C)c1cc(CNCC(C)(C)C)c(O)c2c1C[C@H]1C[C@H]3[C@H](N(C)C)C(O)=C(C(N)=O)C(=O)[C@@]3(O)C(O)=C1C2=O [Omadacycline, 9-[(2,2-dimethyl-propylamino)-methyl]-minocycline]
Mean AUC0-24 ([1]; 300 mg oral once daily, Day 5): 9267.2 ng·h/mL
Cmax/Dose, Geometric LS Means ([1]; 300 mg, Day 1): 2.09 ng/mL/mg
Cmax/Dose, Geometric LS Means ([1]; 300 mg, Day 5): 2.62 ng/mL/mg
Cmax/Dose, Geometric LS Means ([1]; 450 mg, Day 1): 1.81 ng/mL/mg
Cmax/Dose, Geometric LS Means ([1]; 450 mg, Day 5): 2.32 ng/mL/mg
Cmax/Dose, Geometric LS Means ([1]; 600 mg, Day 1): 1.54 ng/mL/mg
Cmax/Dose, Geometric LS Means ([1]; 600 mg, Day 5): 2.11 ng/mL/mg
Day 1 PK Summary, Geom. Mean ([1]; 300 (dose), Day 1): 6,293.65
Day 1 PK Summary, Mean ([1]; 300 (dose), Day 1): 6,560.73
Day 5 PK Summary, Geom. Mean ([1]; 300 (dose), Day 5): 8,990.55
Day 5 PK Summary, Mean ([1]; 300 (dose), Day 5): 9,351.02
Day 1 PK Summary, Geom. Mean ([1]; 450 (dose), Day 1): 8,382.03
Day 1 PK Summary, Mean ([1]; 450 (dose), Day 1): 8,959.13
Day 5 PK Summary, Geom. Mean ([1]; 450 (dose), Day 5): 12,883.95
Day 5 PK Summary, Mean ([1]; 450 (dose), Day 5): 13,363.54
Day 1 PK Summary, Geom. Mean ([1]; 600 (dose), Day 1): 9,644.67
Day 1 PK Summary, Mean ([1]; 600 (dose), Day 1): 9,990.20
Day 5 PK Summary, Geom. Mean ([1]; 600 (dose), Day 5): 15,431.37
Day 5 PK Summary, Mean ([1]; 600 (dose), Day 5): 16,171.61
systemic exposure on Day 5 higher than on Day 1 ([1]; all tested dose levels): ~50%
half-life ([1]; mean half-life in plasma (T1/2), across the 3 tested dose levels, Day 1): ~13 h
half-life ([1]; mean half-life in plasma (T1/2), across the 3 tested dose levels, Day 5): ~16 h
half-life ([1]; po, 300 mg, Mean T1/2, 300 mg oral once daily, Day 1): 13.7 h
half-life ([1]; po, 300 mg, Mean T1/2, 300 mg oral once daily, Day 5): 15.5 h
half-life ([1]; po, 450 mg, Mean T1/2, 450 mg oral once daily, Day 1): 13.4 h
half-life ([1]; po, 450 mg, Mean T1/2, 450 mg oral once daily, Day 5): 16.8 h
half-life ([1]; po, 600 mg, Mean T1/2, 600 mg oral once daily, Day 1): 13 h
half-life ([1]; po, 600 mg, Mean T1/2, 600 mg oral once daily, Day 5): 16.8 h
Tmax ([1]; oral, 600 mg, time at which mean plasma concentrations peaked (Tmax), all tested dose levels (300, 450, 600 mg), Day 1 and Day 5): 2.5 h
AUC(0-t) ([1]; po, 300 mg, Mean AUC0-24, 300 mg oral once daily, Day 1): 6640 ng·h/mL
AUC(0-t) ([1]; po, 300 mg, Mean AUC0-24, 300 mg oral once daily, Day 5): 9270 ng·h/mL
Cmax ([1]; po, 300 mg, 300 mg oral once daily, Day 1): 649 ng/mL
Cmax ([1]; po, 300 mg, 300 mg oral once daily, Day 5): 809 ng/mL
Tmax ([1]; po, 300 mg, Mean Tmax, 300 mg oral once daily, Day 1): 2.5 h
Tmax ([1]; po, 300 mg, Mean Tmax, 300 mg oral once daily, Day 5): 2.5 h
AUC(0-t) ([1]; po, 450 mg, Mean AUC0-24, 450 mg oral once daily, Day 1): 8980 ng·h/mL
AUC(0-t) ([1]; po, 450 mg, Mean AUC0-24, 450 mg oral once daily, Day 5): 13400 ng·h/mL
Cmax ([1]; po, 450 mg, 450 mg oral once daily, Day 1): 874 ng/mL
Cmax ([1]; po, 450 mg, 450 mg oral once daily, Day 5): 1080 ng/mL
Tmax ([1]; po, 450 mg, Mean Tmax, 450 mg oral once daily, Day 1): 2.5 h
Tmax ([1]; po, 450 mg, Mean Tmax, 450 mg oral once daily, Day 5): 2.5 h
AUC(0-t) ([1]; po, 600 mg, Mean AUC0-24, 600 mg oral once daily, Day 1): 10000 ng·h/mL
AUC(0-t) ([1]; po, 600 mg, Mean AUC0-24, 600 mg oral once daily, Day 5): 16400 ng·h/mL
Cmax ([1]; po, 600 mg, 600 mg oral once daily, Day 1): 954 ng/mL
Cmax ([1]; po, 600 mg, 600 mg oral once daily, Day 5): 1310 ng/mL
Tmax ([1]; po, 600 mg, Mean Tmax, 600 mg oral once daily, Day 1): 2.51 h
Tmax ([1]; po, 600 mg, Mean Tmax, 600 mg oral once daily, Day 5): 2.5 h
exposure (dose-normalized AUC0-24) as % of that predicted if perfectly dose-proportional ([1]; Day 1): 76%
exposure (dose-normalized AUC0-24) as % of that predicted if perfectly dose-proportional ([1]; Day 5): 88%
Any TEAE, % of subjects ([2]; 300 mg (n = 26)): (19.2) %
Any TEAE, n of subjects ([2]; 300 mg (n = 26)): 5 n
Most frequent TEAEs: Dizziness, % ([2]; 300 mg (n = 26)): (7.7) %
Most frequent TEAEs: Nausea, % ([2]; 300 mg (n = 26)): (7.7) %
Most frequent TEAEs: Vomiting, % ([2]; 300 mg (n = 26)): (7.7) %
TEAEs leading to early discontinuation of study drug: All, % ([2]; 300 mg (n = 26)): (3.8) %
TEAEs leading to early discontinuation of study drug: Nausea, % ([2]; 300 mg (n = 26)): (3.8) %
TEAEs leading to early discontinuation of study drug: Vomiting, % ([2]; 300 mg (n = 26)): (3.8) %
Treatment-related TEAE, % of subjects ([2]; 300 mg (n = 26)): (15.4) %
Treatment-related TEAE, n of subjects ([2]; 300 mg (n = 26)): 4 n
Treatment-related TEAE, % of subjects ([2]; 300 mg (n = 26), listed as omadacycline): 15.4%
median change in alanine aminotransferase (ALT) concentration between baseline and Day 5 ([2]; 300 mg omadacycline): −2.0 IU/L
Any TEAE, % of subjects ([2]; 450 mg (n = 24)): (12.5) %
Any TEAE, n of subjects ([2]; 450 mg (n = 24)): 3 n
Most frequent TEAEs: ALT increased, % ([2]; 450 mg (n = 24)): (4.2) %
Most frequent TEAEs: Nausea, % ([2]; 450 mg (n = 24)): (4.2) %
TEAEs leading to early discontinuation of study drug: ALT increased, % ([2]; 450 mg (n = 24)): (4.2) %
TEAEs leading to early discontinuation of study drug: All, % ([2]; 450 mg (n = 24)): (4.2) %
Treatment-related TEAE, % of subjects ([2]; 450 mg (n = 24)): (8.3) %
Treatment-related TEAE, n of subjects ([2]; 450 mg (n = 24)): 2 n
Treatment-related TEAE, % of subjects ([2]; 450 mg (n = 24), listed as omadacycline): 8.3%
median change in alanine aminotransferase (ALT) concentration between baseline and Day 5 ([2]; 450 mg omadacycline): 5.0 IU/L
Any TEAE, % of subjects ([2]; 600 mg (n = 24)): (25.0) %
Any TEAE, n of subjects ([2]; 600 mg (n = 24)): 6 n
Most frequent TEAEs: ALT increased, % ([2]; 600 mg (n = 24)): (4.2) %
Most frequent TEAEs: Diarrhea, % ([2]; 600 mg (n = 24)): (8.3) %
Most frequent TEAEs: Dizziness, % ([2]; 600 mg (n = 24)): (4.2) %
Most frequent TEAEs: Nausea, % ([2]; 600 mg (n = 24)): (16.7) %
Most frequent TEAEs: Vomiting, % ([2]; 600 mg (n = 24)): (4.2) %
TEAEs leading to early discontinuation of study drug: All, % ([2]; 600 mg (n = 24)): (4.2) %
TEAEs leading to early discontinuation of study drug: Lipase increased, % ([2]; 600 mg (n = 24)): (4.2) %
Treatment-related TEAE, % of subjects ([2]; 600 mg (n = 24)): (25.0) %
Treatment-related TEAE, n of subjects ([2]; 600 mg (n = 24)): 6 n
Most frequent TEAEs: Nausea, % [2, 3]: 16.7%
Treatment-related TEAE, % of subjects [2, 3]: 25.0%
median change in alanine aminotransferase (ALT) concentration between baseline and Day 5 ([2]; 600 mg omadacycline): 19.5 IU/L
serious TEAEs (SAEs) [2, 4]: no serious TEAEs (SAEs) reported
severity of TEAEs [2, 4]: either mild or moderate in severity
Any TEAE, % of subjects ([2]; Omadacycline Overall (n = 26)): (38.5) %
Any TEAE, n of subjects ([2]; Omadacycline Overall (n = 26)): 10 n
Most frequent TEAEs: ALT increased, % ([2]; Omadacycline Overall (n = 26)): (7.7) %
Most frequent TEAEs: Diarrhea, % ([2]; Omadacycline Overall (n = 26)): (7.7) %
Most frequent TEAEs: Dizziness, % ([2]; Omadacycline Overall (n = 26)): (11.5) %
Most frequent TEAEs: Nausea, % ([2]; Omadacycline Overall (n = 26)): (23.1) %
Most frequent TEAEs: Vomiting, % ([2]; Omadacycline Overall (n = 26)): (11.5) %
TEAEs leading to early discontinuation of study drug: ALT increased, % ([2]; Omadacycline Overall (n = 26)): (3.8) %
TEAEs leading to early discontinuation of study drug: All, % ([2]; Omadacycline Overall (n = 26)): (11.5) %
TEAEs leading to early discontinuation of study drug: Lipase increased, % ([2]; Omadacycline Overall (n = 26)): (3.8) %
TEAEs leading to early discontinuation of study drug: Nausea, % ([2]; Omadacycline Overall (n = 26)): (3.8) %
TEAEs leading to early discontinuation of study drug: Vomiting, % ([2]; Omadacycline Overall (n = 26)): (3.8) %
Treatment-related TEAE, % of subjects ([2]; Omadacycline Overall (n = 26)): (34.6) %
Treatment-related TEAE, n of subjects ([2]; Omadacycline Overall (n = 26)): 9 n
Any TEAE, % of subjects ([2]; Omadacycline Overall (n = 26), listed as omadacycline): 38.5%
nausea, % of subjects ([2]; omadacycline 300 and 450 mg dose groups): ≤ 7.7%
highest individual ALT value ([2]; subject who received 450 mg in Period 1 then 300 mg in Period 2): 150 IU/L
